In EP2402322A1, “1,2,3,4-tetrahydroisoquinoline derivative and its use as orexin receptor antagonist” (Actelion Pharmaceuticals Ltd., priority 2010, dated 2012):
pIC50: −log10 of the molar value. Like-named read-outs stand apart in the source and are kept apart here.

Columns and labels:
[1] = rat; cited from earlier work
rat [2] = conditions: cited from earlier work
rat [3] = conditions: animal model of conditioned fear; cited from earlier work
Wistar rats = assay: EEG, EMG and behavioural indices of alertness recorded by radiotelemetry (absence of sleep-promoting effects); type: in vivo
Method: EEG and EMG signals were measured by telemetry using TL11 M2-F20-EET miniature radiotelemetric implants (Data Science Int.) with two pairs of differential leads.
Surgical implantation was performed under general anesthesia with Ketamin/Xylazln, for cranial placement of one differential pair of EEG electrodes and one pair of EMG leads inserted in either side of the muscles of the neck. After surgery, rats recovered in a thermoregulated chamber and received analgesic treatment with subcutaneous buprenorphine twice a day for 2 d. They were then housed individually and allowed to recover for a minimum of 2 weeks. Thereafter, rats—in their home cage—were placed in a ventilate sound-attenuating box, on a 12-h light / 12-h dark cycle, for acclimatization before continuous EEG / EMG recordings started. The telemetric technology that we used in this study allows accurate and stress-free acquisition of biosignals in rats placed In their familiar home cage environment, with no recording leads restricting their movements. Variables analyzed included four different stages of vigilance and sleep, spontaneous activity in the home cage and body temperature. Sleep and wake stages were evaluated using a rodent scoring software (Somnologica Science) directly processing electrical biosignals on 10 s contiguous epochs. The scoring is based on frequency estimation for EEG and amplitude discrimination for EMG and locomotor activity. Using these measurements, the software determines the probability that all components within each epoch best represent active waking (AW), quiet waking (QW), non-REM-sleep (NREM) or REM-sleep (REM). The percentage of total time spent in AW, QW. NREM- and REM-sleep was calculated per 12 h light or dark period. The latency to the onset of the first significant NREM- and REM-sleep episodes and the frequency and duration of those episodes were also calculated. […] All variables were subsequently recorded for 12 h following administration of the orexin receptor antagonist.

Male Sprague Dawley rats = assay: Acquisition of morphine induced locomotor sensitization; type: in vivo; conditions: 300 mg/kg p.o. 2 h before each morphine injection (10 mg/kg i.p.), 4 pairings; Figure 1
Source text: Method: Although, in essence, locomotor sensitization is a non-associative learning process, the context plays a major role in the development and expression of locomotor sensitization. Thus, drug injections are usually administered intermittently in a context different from the home cage, such as an open field, where locomotor activity can be quantitatively measured. Drugs are regularly administered in high concentrations and via routes of administration with a fast onset of action (such as intraperitoneal or intravenous injections). In order to induce robust locomotor sensitization drugs are administered typically once a day over a period of several days. Once established in such a way, locomotor sensitization can be observed in response to a new drug challenge over a period of up to several months.
Method: Male Sprague Dawley rats are injected with morphine (10 mg/kg i.p.) and placed immediately afterwards in an open field (45 x 40 x 33 cm) for 45 min. Total distance moved (TDM) of the animal is recorded automatically via video-tracking. This procedure is repeated 4 times, every 2nd day, so that each animal received a total number of 4 pairings of morphine injection within the context of the open field.

[4] = Measurement of brain and systemic concentration after oral administration; type: in vivo, male wistar rats; conditions: rat; for concentration at 3 h: 3 h after oral administration (100 mg/kg), n = 3, male wistar rats, 100% PEG 400; for capacity to cross the blood-brain barrier: summary statement
Method: The compounds are formulated in 100% PEG 400. Samples are collected in the same animal at the same time point (+/- 5 min). Blood is sampled from the vena cava caudalis into containers with EDTA as anticoagulant and centrifuged to yield plasma. Brain is sampled after cardiac perfusion of 10 mL NaCl 0.9% and homogenized into one volume of cold phosphate buffer (pH 7.4). All samples are extracted with MeOH and analyzed by LC-MS/MS. Concentrations are determined with the help of calibration curves.

F344 rats = assay: Fear-potentiated startle paradigm; type: in vivo; conditions: 300 mg/kg oral gavage, 1 h before test, n=16 F344 rats; Figure 2
Source text: The fear-potentiated startle (FPS) paradigm is a model of conditioned fear in rodents that relates to emotional states of fear and anxiety. Rats can be trained to associate an initially neutral, soon-to-be conditioned stimulus (CS: e.g. light) with an aversive, unconditioned stimulus (US; e.g. foot shook). When tested after training for their startle reflex response to brief (ms) noise bursts in the absence vs. the presence of the CS (e.g. light), rats generally show greater startle amplitudes during the presence of the CS which now serves as a predictor of shock. […] This model translates to humans where a similar training procedure can be implemented and a FPS response can also be evoked in the presence of a shock predicting cue. […] The current paradigm represents a translational animal model that is predictive of anxiolytic activity of a drug.
Method: Sixteen adult male F344 rats were trained for two consecutive days (conditioning phase) to associate a light-stimulus with a foot shock (0.4 mA). On the following day they were tested for their response to startle eliciting noise stimuli which were delivered randomly under light (cue) or dark (no cue) conditions. […] Average startle responses to noise stimuli of 90, 100 and 110dB intensity under light and dark conditions during the test day were measured and electrically transduced into a millivolt signal. […]

human orexin-1 receptor = molecular target: T1, human orexin-1 receptor (Homo sapiens, UniProt O43613); assay: Intracellular calcium measurements (FLIPR), CHO cells, 3 nM orexin-A as agonist; type: cell-based
T1 construct: expressed in transfected cells; host or cells: CHO cells (G418 selection)
T1 sequence (O43613 1-425): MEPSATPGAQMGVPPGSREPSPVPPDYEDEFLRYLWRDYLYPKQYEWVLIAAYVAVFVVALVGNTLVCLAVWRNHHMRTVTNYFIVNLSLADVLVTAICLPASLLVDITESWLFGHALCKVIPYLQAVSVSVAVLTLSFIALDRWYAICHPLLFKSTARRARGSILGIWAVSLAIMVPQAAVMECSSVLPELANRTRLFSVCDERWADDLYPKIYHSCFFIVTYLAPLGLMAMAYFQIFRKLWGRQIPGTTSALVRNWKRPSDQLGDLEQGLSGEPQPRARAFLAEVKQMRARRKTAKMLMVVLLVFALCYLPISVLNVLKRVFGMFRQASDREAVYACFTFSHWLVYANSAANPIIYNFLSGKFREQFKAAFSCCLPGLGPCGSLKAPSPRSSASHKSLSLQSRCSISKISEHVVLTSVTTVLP
Method: Chinese hamster ovary (CHO) cells expressing the human orexin-1 receptor and the human orexin-2 receptor, respectively, are grown in culture medium (Ham F-12 with L-Glutamine) containing 300 µg/ml G418, 100 U/ml penicillin, 100 µg/ml streptomycin and 10 % heat inactivated fetal calf serum (FCS). The cells are seeded at 20'000 cells / well into 384-well black clear bottom sterile plates (Greiner). The seeded plates are incubated overnight at 37°C in 5% CO2.
Human orexin-A as an agonist is prepared as 1 mM stock solution in MeOH: water (1:1), diluted in HBSS containing 0.1 % bovine serum albumin (BSA), NaHCO3: 0.375g/l and 20 mM HEPES for use in the assay at a final concentration of 3 nM. […]
Within the Fluorescent Imaging Plate Reader (FLIPR Tetra, Molecular Devices), antagonists are added to the plate in a volume of 10 µl/well, incubated for 10 min and finally 10 µl/well of agonist is added. Fluorescence is measured for each well at 1 second intervals, and the height of each fluorescence peak is compared to the height of the fluorescence peak induced by 3 nM orexin-A with vehicle in place of antagonist. […] The calculated IC50 values may fluctuate depending on the daily cellular assay performance. […]

human orexin-2 receptor = molecular target: T2, human orexin-2 receptor (Homo sapiens, UniProt O43614); assay: as above; type: cell-based; conditions: geometric mean; antagonism of 3 nM orexin-A
T2 construct: expressed in transfected cells; host or cells: CHO cells (G418 selection)
T2 sequence (O43614 1-444): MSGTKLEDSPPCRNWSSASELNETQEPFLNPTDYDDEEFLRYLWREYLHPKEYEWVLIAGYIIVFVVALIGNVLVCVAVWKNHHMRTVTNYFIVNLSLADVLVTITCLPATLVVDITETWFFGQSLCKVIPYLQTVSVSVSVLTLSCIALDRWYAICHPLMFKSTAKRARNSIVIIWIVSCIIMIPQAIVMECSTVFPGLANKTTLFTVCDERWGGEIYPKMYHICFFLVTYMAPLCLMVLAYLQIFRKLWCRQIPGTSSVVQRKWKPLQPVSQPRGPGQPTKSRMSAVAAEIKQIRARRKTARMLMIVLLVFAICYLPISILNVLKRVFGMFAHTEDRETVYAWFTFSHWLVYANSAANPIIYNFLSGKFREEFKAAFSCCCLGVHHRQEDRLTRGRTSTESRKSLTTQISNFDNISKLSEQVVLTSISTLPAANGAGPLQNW
Method: Fluorescence is measured for each well at 1 second intervals, and the height of each fluorescence peak is compared to the height of the fluorescence peak induced by 3 nM orexin-A with vehicle in place of antagonist. […] Optimized conditions were achieved by adjustment of pipetting speed and cell splitting regime. The calculated IC50 values may fluctuate depending on the daily cellular assay performance. Fluctuations of this kind are known to those skilled in the art.

[5] = 300 mg/kg po, Wistar rats, 12 h following administration
[6] = brain, read-out: concentration in brain [B]
[7] = plasma, read-out: concentration in plasma [P]

Structure (SMILES)	crossing of the blood-brain barrier [1]	systemic bioavailability [1]	alertness (active wake and locomotion) (rat [2])	time spent in both REM and NREM sleep (rat [2])	activity in the rat fear potentiated startle paradigm (rat [3])	effect on NREM sleep compared to vehicle controls (Wistar rats; [5]) [%]	effect on REM sleep compared to vehicle controls (Wistar rats; [5])	effect on active wake compared to vehicle controls (Wistar rats; [5]) [%]	effect on home cage activity compared to vehicle controls (Wistar rats; [5]) [%]	effect in a model relevant to sleep induction (Wistar rats; at relevant dose, summary statement)	acquisition of locomotor sensitization to morphine (total distance moved) (Male Sprague Dawley rats)	concentration at 3 h [4, 6] [ng/g]	concentration at 3 h [4, 7] [ng/mL]	capacity to cross the blood-brain barrier [4]	fear-potentiated startle response under light (cue) conditions as compared to vehicle (F344 rats)	pIC50 (human orexin-1 receptor)	pIC50 (human orexin-2 receptor)	pIC50 (human orexin-1 receptor; geometric mean, antagonism of 3 nM orexin-A, read-out: IC50 value on the orexin-1 receptor)
CNC(=O)[C@@H](c1ccccc1)N1CCc2cc(OC)c(OC)cc2[C@@H]1CCc1ccc(C(F)(F)F)cc1 [(2R)-2-{(1S)-6,7-dimethoxy-1-[2-(4-trifluoromethyl-phenyl)-ethyl]-3,4-dihydro-1H-isoquinolin-2-yl}-N-methyl-2-phenyl-acetamide]	cross the blood-brain barrier	good	decrease alertness	dose-dependently increase	active	–	–	–	–	–	–	–	–	–	–	–	–	–
COc1ccc(C[C@H]2c3cc(OC)c(OC)cc3CCN2[C@@H](C(=O)NC(C)C)c2ccccc2)cc1OC [COMPOUND, (R)-2-[(S)-1-(3,4-dimethoxy-benzyl)-6,7-dimethoxy-3,4-dihydro-1H-isoquinolin-2-yl]-N-isopropyl-2-phenyl-acetamide]	–	–	–	–	–	-2	+1%	-4	-3	no effect	significantly reduced	880	1460	crossed the blood-brain barrier	significantly reduced	7.57	–	–
CCCCNC(=O)[C@@H](c1ccccc1)N1CCc2cc(OC)c(OC)cc2[C@@H]1Cc1ccc(OC)c(OC)c1 [Reference Compound 1, (R)-2-[(S)-1-(3,4-Dimethoxy-benzyl)-6,7-dimethoxy-3,4-dihydro-1H-isoquinolin-2-yl]-N-butyl-2-phenyl-acetamide, reference compound]	–	–	–	–	–	–	–	–	–	–	–	530	850	only moderate capacity	no effect	–	< 6.52	7.92
